Assay results reported in patent publication US9510598B2, “Nitrogen-containing heterocyclic compounds for plant disease control” (BAYER CROPSCIENCE AG, priority 2012, dated 2016).
Like-named read-outs stand apart in the source and are kept apart here.

How the values were obtained:
Septoria tritici = assay: In vivo preventive test on Septoria tritici (leaf spot on wheat); conditions: 500 ppm; wheat plants sprayed 24 hours before contamination; grading 21 to 28 days after contamination vs control plants
Outline: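 Scipion wheat at 1-leaf stage sprayed with compound, controls receiving acetone/tween/DMSO/water vehicle; 24 h later leaves inoculated with Septoria tritici spores (500 000 spores per ml). Efficacy (%) graded versus control plants 21 to 28 days after contamination.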

Alternaria brassicae = assay: In vivo preventive test on Alternaria brassicae (leaf spot on radish); conditions: 500 ppm; radish plants sprayed 24 hours before contamination; grading 5 days after contamination vs control plants
Experimental: Radish plants (“Pernod Clair” variety), sown in starter cups on a 50/50 peat soil-pozzolana substrate and grown at 17° C., are treated at the 2-leaf stage by spraying with the active ingredient prepared as described above. Plants, used as controls, are treated with the mixture of acetone/tween/DMSO/water not containing the active material. After 24 hours, the plants are contaminated by spraying the leaves with an aqueous suspension of Alternaria brassicae spores (50 000 spores per ml). The spores are collected from a 15-day-old culture. […] Grading (% of efficacy) is carried out 5 days after the contamination, in comparison with the control plants.

Botrytis cinerea = assay: In vivo preventive test on Botrytis cinerea (grey mould); conditions: 500 ppm; gherkin plants sprayed 24 hours before contamination; grading 4-5 days after contamination vs control plants
Outline: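 Gherkin plants ("Vert petit de Paris") sprayed with compound at Z11 cotyledon stage, then inoculated 24 h later with B. cinerea spores (50 000/ml) in PDB/fructose/NH4NO3/KH2PO4 nutrient solution. Incubated at 17 °C, 80% RH; % efficacy versus solvent-treated controls graded 4–5 days after contamination.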

[1] = assay type: physicochemical
Puccinia recondita = assay: In vivo preventive test on Puccinia recondita (brown rust on wheat); conditions: 500 ppm; wheat plants sprayed 24 hours before contamination; grading 10 days after contamination vs control plants
Experimental: Wheat plants (“Scipion” variety), sown in starter cups on a 50/50 peat soil-pozzolana substrate and grown at 22° C. (12 h)/20° C. (12 h), are treated at the 1-leaf stage (10 cm height) by spraying with the active ingredient prepared as described above. Plants, used as controls, are treated with the mixture of acetone/tween/DMSO/water not containing the active material. After 24 hours, the plants are contaminated by spraying the leaves with an aqueous suspension of Puccinia recondita spores (100 000 spores per ml).

Sphaerotheca fuliginea = assay: In vivo preventive test on Sphaerotheca fuliginea (powdery mildew on cucurbits); conditions: 500 ppm; gherkin plants sprayed 24 hours before contamination; grading 12 days after contamination vs control plants
Outline: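 Preventive spray of gherkin plants at Z11 cotyledon stage, grown at 24° C; inoculation 24 hours later with Sphaerotheca fuliginea spores (100 000 spores per ml). Efficacy graded 12 days post-inoculation as % versus solvent-treated control plants.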

Phytophthora infestans = assay type: in vivo; conditions: 500 ppm; tomato plants sprayed 24 hours before contamination; grading 5 days after contamination vs control plants
[2] = method [a]: HPLC/LC-MS on reversed phase at pH 2.7, 0.1% formic acid in water / acetonitrile, linear gradient 10% to 95% acetonitrile
[3] = HPLC on reversed phase columns, method [a]: pH 2.7, 0.1% formic acid in water / acetonitrile, linear gradient 10% to 95% acetonitrile
[4] = method [a]: HPLC/LC-MS on reversed phase at pH 2.7, 0.1% formic acid in water / acetonitrile, gradient 10% to 95% acetonitrile

Row | SMILES | % of efficacy (protection) (Septoria tritici) [%] | % of efficacy (protection) (Alternaria brassicae) [%] | % of efficacy (protection) (Botrytis cinerea) [%] | log P [1, 2] | log P [1, 4] | other results
1 | C#Cc1cnc2ccc(C3=NOC(C)(C(=O)NCc4ccc5ncccc5c4)C3)cc2c1 (stereo not drawn) [compound 227] | 93 | 75 | 92 | 1.59^[a] | – | –
2 | Cc1nc(CNC(=O)C2(C)CC(c3ccc4ncc(Br)cc4c3)=NO2)no1 (stereo not drawn) [compound 171] | 71 | 75 | – | 2.23^[a] | – | –
3 | C#Cc1cnc2ccc(C3=NOC(C)(C(=O)NCc4ccc5ccoc5c4)C3)cc2c1 (stereo not drawn) [compound 242] | 86 | 94 | 86 | – | – | log P [1, 3]: 3^[a]
4 | CC1(C(=O)NC2CCC2)CC(c2ccc3ncc(I)cc3c2)=NO1 (racemic) [compound 454] | – | – | – | – | 3.06[a] | % of efficacy (protection) (Puccinia recondita): 94%
5 | C#Cc1cnc2ccc(C3=NOC(C)(C(=O)NCC4CCOC4)C3)cc2c1 (stereo not drawn) [compound 214] | 100 | 75 | 100 | 1.98^[a] | – | % of efficacy (protection) (Sphaerotheca fuliginea): 78%
6 | C#Cc1cnc2ccc(C3=NOC(C)(C(=O)NCc4cnn(C)c4)C3)cc2c1 (stereo not drawn) [compound 180] | 100 | 75 | 95 | 1.86^[a] | – | % of efficacy (protection) (Sphaerotheca fuliginea): 98%; % of efficacy (protection) (Phytophthora infestans): 86%
7 | C#Cc1cnc2ccc(C3=NOC(C)(C(=O)NCC4OCCc5ccccc54)C3)cc2c1 (single isomer, unassigned) [compound 262] | – | – | 95 | – | – | % of efficacy (protection) (Puccinia recondita): 81%; log P [1, 3]: 3.13^[a]
8 | CC1(C(N)=O)CC(c2ccc3ncc(Br)cc3c2)=NO1 (racemic) [compound 380] | – | – | – | – | 1.82[a] | % of efficacy (protection) (Puccinia recondita): 78%
9 | C#Cc1cnc2ccc(C3=NOC(C)(C(=O)NCc4cccs4)C3)cc2c1 (stereo not drawn) [compound 162] | 86 | 88 | 99 | 2.73^[a] | – | % of efficacy (protection) (Sphaerotheca fuliginea): 94%
10 | C#Cc1cnc2ccc(C3=NOC(C)(C(=S)NCc4cnn(C)c4)C3)cc2c1 (racemic) [compound 451] | 94 | – | – | – | 2.62[a] | % of efficacy (protection) (Puccinia recondita): 89%
11 | CCCOc1cnc2ccc(C3=NOC(C)(C(=O)NC(C)C)C3)cc2c1 (stereo not drawn) [compound 412] | – | 70 | – | – | 2.16[a] | –
12 | C#CC1(C(=O)NC(C)C)CC(c2ccc3ncc(Br)cc3c2)=NO1 (stereo not drawn) [compound 402] | 100 | 71 | 99 | – | 2.92[a] | –
13 | CC1(C(=O)NCc2ccc(Oc3ccccc3)cc2)CC(c2ccc3ncc(Br)cc3c2)=NO1 (stereo not drawn) [compound 84] | – | 80 | – | 4.24^[a] | – | –
14 | C#Cc1cnc2ccc(C3=NOC(C)(C(=O)NCc4ncc(C(F)(F)F)cc4Cl)C3)cc2c1 (stereo not drawn) [compound 157] | – | – | – | 3.48^[a] | – | % of efficacy (protection) (Puccinia recondita): 72%
15 | C#Cc1cnc2ccc(C3=NOC(OC)(C(=O)N(CC(F)F)C(C)C)C3)cc2c1 (stereo not drawn) [compound 469] | 97 | – | – | – | 3.60[a] | % of efficacy (protection) (Puccinia recondita): 80%
16 | O=C(NC1CC1)C1(CC2CC2)CC(c2ccc3ncc(Br)cc3c2)=NO1 (racemic) [compound 427] | – | 83 | – | – | 3.20[a] | –
17 | CC1(C(=O)NC2CC2C2CC2)CC(c2ccc3ncc(Br)cc3c2)=NO1 (stereo not drawn) [compound 215] | 86 | 75 | 87 | 3.29^[a] | – | –
18 | CCOC1(C(=O)NC(C)C)CC(c2ccc3ncc(Br)cc3c2)=NO1 (stereo not drawn) [compound 415] | – | 80 | – | – | 2.98[a] | –
19 | CCn1cc(CNC(=O)C2(c3ccccc3)CC(c3ccc4ncc(Br)cc4c3)=NO2)c(C)n1 (stereo not drawn) [compound 278] | – | 86 | – | – | – | % of efficacy (protection) (Sphaerotheca fuliginea): 100%; log P [1, 3]: 3.18[a]
20 | C#Cc1cnc2ccc(C3=NOC(C)(C(=O)NCc4ccc5c(c4)OCC5)C3)cc2c1 (stereo not drawn) [compound 220] | – | 88 | 100 | 2.82^[a] | – | –

Row | SMILES | % of efficacy (protection) (Septoria tritici) [%] | % of efficacy (protection) (Alternaria brassicae) [%] | % of efficacy (protection) (Botrytis cinerea) [%] | log P [1, 2] | log P [1, 4] | other results
21 | C#Cc1cnc2ccc(C3=NOC(C)(C(=O)NCc4ccc(OC(F)(F)F)cc4)C3)cc2c1 (stereo not drawn) [compound 173] | – | 88 | – | 3.53^[a] | – | –
22 | CC(C)NC(=O)C1(CC2CC2)CC(c2ccc3ncc(Br)cc3c2)=NO1 (stereo not drawn) [compound 422] | – | 72 | – | – | 3.60[a] | –
23 | C#Cc1cnc2ccc(C3=NOC(C)(C(=O)NCc4csc5ccc(Cl)cc45)C3)cc2c1 (stereo not drawn) [compound 244] | – | 81 | – | – | – | log P [1, 3]: 3.74^[a]
24 | C#Cc1cnc2ccc(C3=NOC(C)(C(=O)NCc4noc(C)n4)C3)cc2c1 (stereo not drawn) [compound 170] | 71 | 81 | 100 | 1.99^[a] | – | –
25 | CCC#Cc1cnc2ccc(C3=NOC(C)(C(=O)NCc4cn(CC)nc4C)C3)cc2c1 (racemic) [compound 394] | – | – | – | – | 2.75[a] | % of efficacy (protection) (Puccinia recondita): 92%
26 | C#Cc1cnc2ccc(C3=NOC(C)(C(=O)NCC4CCCCC4)C3)cc2c1 (stereo not drawn) [compound 246] | – | 75 | – | – | – | log P [1, 3]: 3.55^[a]
27 | C#Cc1cnc2ccc(C3=NOC(C)(C(=O)NCc4ccccc4Oc4ccccc4)C3)cc2c1 (stereo not drawn) [compound 187] | – | 88 | – | 3.89^[a] | – | –
28 | C#Cc1cnc2ccc(C3=NOC(C)(C(=O)NCc4ccncc4)C3)cc2c1 (stereo not drawn) [compound 99] | – | 70 | 100 | 1.2^[a] | – | –
29 | CC(C)NC(=O)C12OCCCC1C(c1ccc3ncc(Br)cc3c1)=NO2 (stereo not drawn) [compound 273] | – | 75 | – | – | – | log P [1, 3]: 2.90[a]
30 | C#Cc1cc2cc(C3=NOC(C)(C(=O)NCc4cn(CC)nc4C)C3)ccc2nc1Cl (stereo not drawn) [compound 411] | – | 80 | – | – | 2.59[a] | –
31 | C#Cc1cnc2ccc(C3=NOC(C)(C(=O)NCC4OCCc5ccccc54)C3)cc2c1 (single isomer, unassigned) [compound 245] | 71 | 94 | – | – | – | log P [1, 3]: 2.92^[a]
32 | C#Cc1cnc2ccc(C3=NOC(C)(C(=O)NCc4ccc(C)o4)C3)cc2c1 (stereo not drawn) [compound 163] | – | 88 | – | 2.8^[a] | – | –
33 | Cc1cnc(CNC(=O)C2(C)CC(c3ccc4ncc(Br)cc4c3)=NO2)cn1 (stereo not drawn) [compound 85] | 75 | 96 | – | 2.2^[a] | – | –
34 | CC1(C(=O)NC2CCC2)CC(c2ccc3ncc(Br)cc3c2)=NO1 (stereo not drawn) [compound 234] | 86 | 75 | 99 | – | – | % of efficacy (protection) (Sphaerotheca fuliginea): 94%; log P [1, 3]: 2.9^[a]
35 | CC1(C(=O)NCc2ccco2)CC(c2ccc3ncc(Br)cc3c2)=NO1 (stereo not drawn) [compound 161] | – | 75 | – | 2.82^[a] | – | –
36 | C#Cc1cnc2ccc(C3=NOC(C)(C(=O)NCc4cnn(C)c4C)C3)cc2c1 (stereo not drawn) [compound 178] | 100 | 75 | 100 | 1.93^[a] | – | –
37 | C#Cc1cnc2ccc(C3=NOC(C)(C(=O)NCc4ccco4)C3)cc2c1 (stereo not drawn) [compound 164] | – | 88 | 71 | 2.51^[a] | – | –
38 | C#Cc1cnc2ccc(C3=NOC(OC)(C(=O)N4CCCCO4)C3)cc2c1 (racemic) [compound 457] | 88 | – | – | – | 2.41[a] | % of efficacy (protection) (Puccinia recondita): 83%
39 | CCCn1cc(CNC(=O)C2(CC3CC3)CC(c3ccc4ncc(Br)cc4c3)=NO2)c(C)n1 (stereo not drawn) [compound 424] | – | – | – | – | 3.33[a] | % of efficacy (protection) (Puccinia recondita): 72%
